Laboratory results reported in paper PMC11116414, “Impact of secretin receptor homo-dimerization on natural ligand binding” (Nature Communications, 2024).
No end group written: not given here.

Tested on: cysteine-containing SecR(G264A,I268A) constructs
Assay: Cysteine trapping with SecR(G264A,I268A) cysteine constructs, intact COS-1 cells
Format: binding, human
Details: for Intraloop labeling / Overall labeling: mean ± S.E.M.
Protocol: In short, 15 µg of each peptide were incubated with 1 mCi of Na^125I for 15 s in borate buffer (pH 9.0) using solid-state N-chlorobenzene sulfonamide (iodination beads), and radioactive peptide products were separated and purified using reversed-phase HPLC, to yield a mono-iodinated peak with a specific radioactivity of 2000 Ci/mmol.
Modified secretin receptor constructs were prepared by mutagenesis of human SecR(G264A,I268A) by introducing cysteine residues to replace each natural residue in the N-terminal stalk region, (extracellular loop 1) ECL1, ECL2, and ECL3 regions of the receptor[21]. Mutagenesis was performed using the QuikChange site-directed mutagenesis kit from Stratagene (La Jolla, CA), with the products verified by direct DNA sequencing.
Cysteine trapping is a technique in which cysteine residues incorporated into distinct positions within a peptide ligand and within its receptor are allowed to form disulfide bonds when two free cysteines are in proximity to each other with necessary distance and geometry. As noted above, this was performed with secretin peptides incorporating cysteines in positions 2, 5, 6 and 7[20],[21], and with a series of SecR mutants incorporating cysteines in all extracellular domains (75 distinct constructs in a TM4 mutant non-dimerizing SecR background). COS-1 cells were grown to approximate 85% confluence in 24-well tissue culture plates, and transfected with cysteine mutant receptor constructs using the PEI method. Assays were started by washing the cells with DMEM containing 5% Fetal Clone II before being incubated with 200 μl radiolabeled cysteine-containing probes (approximately 100,000 cpm per well) for 1.5 h at room temperature. The assays were terminated by washing the cells with ice-cold PBS, pH 7.4, and mixing with 60 µl SDS Laemmli sample buffer not containing dithiothreitol (DTT). Lysates were run on 10% SDS-polyacrylamide gels. Gels were then dried, and bands of interest were visualized by autoradiography, and specific bands were identified, and intensities quantified using ImageJ. Sites having labeling above background were determined using one-way ANOVA with Dunnett’s post-test, with P < 0.001 considered to be significant. The apparent molecular weights of the receptor bands were determined by interpolation with the mobility of the appropriate ProSieve protein markers.

[1] = A292C, ECL2, n = 3-5, Cys5 significant (P < 0.0001)
[2] = A365C, ECL3, n = 3-5, Cys5 significant (P < 0.0001)
[3] = D364C, ECL3, n = 3-5, Cys5 significant (P < 0.0001)
[4] = F279C, ECL2, % of highest labeling within loop, n = 4 (Cys2), 5 (Cys5, Cys6), 3 (Cys7)
[5] = F279C, ECL2, % of highest-labeled residue across all constructs, n = 4 (Cys2), 5 (Cys5, Cys6), 3 (Cys7)
[6] = I288C, ECL2, n = 3-5, Cys5 and Cys7 significant (P < 0.0001)
[7] = L374C, ECL3, n = 3-5, Cys5, Cys6, Cys7 significant (P < 0.001)
[8] = W295C, ECL2, n = 3-5, Cys2, Cys5, Cys7 significant (P < 0.0001)
[9] = W296C, ECL2, n = 3-5, Cys6 significant (P = 0.0003)

Cys^2-[Tyr^10]secretin(1-27) (HCDGTFTSEYSRLREGARLQRLLQGLV; not fully specified; ends and bridges not checked; also: radioiodinated; UniProt P09683 28-54, looked up, variant S2C L10Y) [Cys^2-Sec, cysteine-containing secretin agonist probe, radioiodinated for cysteine trapping]
Intraloop labeling (A290C, ECL2, n = 3-5): < 1 percentage
Overall labeling (A290C, ECL2, n = 3-5): < 1 percentage
Intraloop labeling (A292C, ECL2, n = 3-5): < 1 percentage
Overall labeling [1]: < 1 percentage
Intraloop labeling (A365C, ECL3, n = 3-5): 22.5±19.5 percentage
Overall labeling [2]: 21.7±19.6 percentage
Intraloop labeling (D282C, ECL2, n = 3-5): < 1 percentage
Overall labeling (D282C, ECL2, n = 3-5): < 1 percentage
Intraloop labeling (D287C, ECL2, n = 3-5): < 1 percentage
Overall labeling (D287C, ECL2, n = 3-5): < 1 percentage
Intraloop labeling (D364C, ECL3, n = 3-5): 22.1±19.0 percentage
Overall labeling [3]: 21.3±19.1 percentage
Intraloop labeling (E281C, ECL2, n = 3-5): < 1 percentage
Overall labeling (E281C, ECL2, n = 3-5): < 1 percentage
Overall labeling (E363C, ECL3, n = 3-5): < 1 percentage
Intraloop labeling (E367C, ECL3, n = 3-5): < 1 percentage
Overall labeling (E367C, ECL3, n = 3-5): < 1 percentage
Intraloop labeling (E373C, ECL3, n = 3-5): 37.0±22.4 percentage
Overall labeling (E373C, ECL3, n = 3-5): 27.2±18.7 percentage
Intraloop labeling [4]: < 1 percentage
Overall labeling [5]: < 1 percentage
Intraloop labeling (F358C, ECL3, n = 3-5): 36.3±17.6 percentage
Overall labeling (F358C, ECL3, n = 3-5): 29.0±11.6 percentage
Intraloop labeling (F360C, ECL3, n = 3-5): 22.9±8.3 percentage
Overall labeling (F360C, ECL3, n = 3-5): 19.4±6.5 percentage
Intraloop labeling (F371C, ECL3, n = 3-5): 14.7±12.5 percentage
Overall labeling (F371C, ECL3, n = 3-5): 14.5±12.5 percentage
Intraloop labeling (F372C, ECL3, n = 3-5): 33.7±20.5 percentage
Overall labeling (F372C, ECL3, n = 3-5): 23.5±15.3 percentage
Intraloop labeling (G284C, ECL2, n = 3-5): < 1 percentage
Overall labeling (G284C, ECL2, n = 3-5): < 1 percentage
Intraloop labeling (I288C, ECL2, n = 3-5): < 1 percentage
Overall labeling [6]: < 1 percentage
Intraloop labeling (I294C, ECL2, n = 3-5): < 1 percentage
Overall labeling (I294C, ECL2, n = 3-5): < 1 percentage
Intraloop labeling (I368C, ECL3, n = 3-5): < 1 percentage
Overall labeling (I368C, ECL3, n = 3-5): < 1 percentage
Intraloop labeling (L280C, ECL2, n = 3-5): < 1 percentage
Overall labeling (L280C, ECL2, n = 3-5): < 1 percentage
Intraloop labeling (L370C, ECL3, n = 3-5): 16.6±15.3 percentage
Intraloop labeling (L374C, ECL3, n = 3-5): 40.3±24.4 percentage
Overall labeling [7]: 29.1±19.6 percentage
Intraloop labeling (N289C, ECL2, n = 3-5): < 1 percentage
Overall labeling (N289C, ECL2, n = 3-5): < 1 percentage
Intraloop labeling (N291C, ECL2, n = 3-5): < 1 percentage
Overall labeling (N291C, ECL2, n = 3-5): < 1 percentage
Intraloop labeling (Q369C, ECL3, n = 3-5): < 1 percentage
Overall labeling (Q369C, ECL3, n = 3-5): < 1 percentage
Intraloop labeling (S293C, ECL2, n = 3-5): < 1 percentage
Overall labeling (S293C, ECL2, n = 3-5): < 1 percentage
Intraloop labeling (S361C, ECL3, n = 3-5): < 1 percentage
Overall labeling (S361C, ECL3, n = 3-5): < 1 percentage
Intraloop labeling (V283C, ECL2, n = 3-5): < 1 percentage
Overall labeling (V283C, ECL2, n = 3-5): < 1 percentage
Intraloop labeling (W286C, ECL2, n = 3-5): < 1 percentage
Overall labeling (W286C, ECL2, n = 3-5): < 1 percentage
Intraloop labeling (W295C, ECL2, n = 3-5): 100±0 percentage
Overall labeling [8]: 93.0±7.0 percentage
Intraloop labeling (W296C, ECL2, n = 3-5): < 1 percentage
Overall labeling [9]: < 1 percentage

Cys^5-[Tyr^10]secretin(1-27) (HSDGCFTSEYSRLREGARLQRLLQGLV; not fully specified; ends and bridges not checked; also: radioiodinated; UniProt P09683 28-54, looked up, variant T5C L10Y) [Cys^5-Sec, cysteine-containing secretin agonist probe, radioiodinated for cysteine trapping]
Intraloop labeling (A290C, ECL2, n = 3-5): 20.3±19.9 percentage
Overall labeling (A290C, ECL2, n = 3-5): 15.5±15.2 percentage
Intraloop labeling (A292C, ECL2, n = 3-5): 93.4±2.8 percentage
Overall labeling [1]: 88.5±4.0 percentage
Intraloop labeling (A365C, ECL3, n = 3-5): 90.4±5.8 percentage
Overall labeling [2]: 82.4±7.9 percentage
Intraloop labeling (D282C, ECL2, n = 3-5): < 1 percentage
Overall labeling (D282C, ECL2, n = 3-5): < 1 percentage
Intraloop labeling (D287C, ECL2, n = 3-5): < 1 percentage
Overall labeling (D287C, ECL2, n = 3-5): < 1 percentage
Intraloop labeling (D364C, ECL3, n = 3-5): 62.2±12.3 percentage
Overall labeling [3]: 54.2±7.8 percentage
Intraloop labeling (E281C, ECL2, n = 3-5): < 1 percentage
Overall labeling (E281C, ECL2, n = 3-5): < 1 percentage
Intraloop labeling (E363C, ECL3, n = 3-5): < 1 percentage
Overall labeling (E363C, ECL3, n = 3-5): < 1 percentage
Intraloop labeling (E367C, ECL3, n = 3-5): < 1 percentage
Overall labeling (E367C, ECL3, n = 3-5): < 1 percentage
Intraloop labeling (E373C, ECL3, n = 3-5): < 1 percentage
Overall labeling (E373C, ECL3, n = 3-5): < 1 percentage
Intraloop labeling [4]: < 1 percentage
Overall labeling [5]: < 1 percentage
Intraloop labeling (F371C, ECL3, n = 3-5): < 1 percentage
Overall labeling (F371C, ECL3, n = 3-5): < 1 percentage
Intraloop labeling (F372C, ECL3, n = 3-5): < 1 percentage
Overall labeling (F372C, ECL3, n = 3-5): < 1 percentage
Intraloop labeling (G284C, ECL2, n = 3-5): < 1 percentage
Overall labeling (G284C, ECL2, n = 3-5): < 1 percentage
Intraloop labeling (I288C, ECL2, n = 3-5): 71.1±10.8 percentage
Overall labeling [6]: 69.2±12.2 percentage
Intraloop labeling (I294C, ECL2, n = 3-5): < 1 percentage
Overall labeling (I294C, ECL2, n = 3-5): < 1 percentage
Intraloop labeling (I297C, ECL2, n = 3-5): < 1 percentage
Overall labeling (I297C, ECL2, n = 3-5): < 1 percentage
Intraloop labeling (I368C, ECL3, n = 3-5): < 1 percentage
Overall labeling (I368C, ECL3, n = 3-5): < 1 percentage
Intraloop labeling (L280C, ECL2, n = 3-5): < 1 percentage
Overall labeling (L280C, ECL2, n = 3-5): < 1 percentage
Intraloop labeling (L370C, ECL3, n = 3-5): < 1 percentage
Overall labeling (L370C, ECL3, n = 3-5): < 1 percentage
Intraloop labeling (L374C, ECL3, n = 3-5): 77.3±7.7 percentage
Overall labeling [7]: 69.8±7.5 percentage
Intraloop labeling (M366C, ECL3, n = 3-5): 59.9±11.0 percentage
Overall labeling (M366C, ECL3, n = 3-5, Cys5 significant (P < 0.0001)): 55.3±12.0 percentage
Intraloop labeling (N289C, ECL2, n = 3-5): < 1 percentage
Overall labeling (N289C, ECL2, n = 3-5): < 1 percentage
Intraloop labeling (N291C, ECL2, n = 3-5): < 1 percentage
Overall labeling (N291C, ECL2, n = 3-5): < 1 percentage
Intraloop labeling (P362C, ECL3, n = 3-5): 20.3±19.9 percentage
Overall labeling (P362C, ECL3, n = 3-5): 19.3±19.0 percentage
Intraloop labeling (Q369C, ECL3, n = 3-5): 21.6±13.4 percentage
Overall labeling (Q369C, ECL3, n = 3-5): 21.6±13.5 percentage
Intraloop labeling (S293C, ECL2, n = 3-5): < 1 percentage
Overall labeling (S293C, ECL2, n = 3-5): < 1 percentage
Intraloop labeling (S361C, ECL3, n = 3-5): < 1 percentage
Overall labeling (S361C, ECL3, n = 3-5): < 1 percentage
Intraloop labeling (V283C, ECL2, n = 3-5): < 1 percentage
Overall labeling (V283C, ECL2, n = 3-5): < 1 percentage
Intraloop labeling (W286C, ECL2, n = 3-5): < 1 percentage
Overall labeling (W286C, ECL2, n = 3-5): < 1 percentage
Intraloop labeling (W295C, ECL2, n = 3-5): 79.1±16.7 percentage
Overall labeling [8]: 78.3±17.3 percentage
Intraloop labeling (W296C, ECL2, n = 3-5): < 1 percentage
Overall labeling [9]: < 1 percentage
cysteine trapping in ECL3, in words (WT (earlier work) and non-dimerizing SecR): labeled ECL3 residues
